# In patent publication US10047118B2, “C17-aryl substituted betulinic acid analogs” (priority 2014, dated 2018):
# Tested on: recombinant NL4-3 virus (Renilla luciferase in nef, Gag P373S; NLRluc) in MT-2 cells
# Experiment: HIV cell culture assay (luciferase reporter virus in MT-2 cells)
# Assay type: cell-based
# Conditions: NL43, read-out: WT EC50
# Procedure: Step 2: To a solution of methyl 4-((1R,3aS,5aR,5bR,7aR,11aS,11bR,13aR,13bR)-5a,5b,8,8,11a-pentamethyl-3a-(1-methyl-1H-1,2,4-triazol-5-yl)-1-(prop-1-en-2-yl)-2,3,3a,4,5,5a,5b,6,7,7a,8,11,11a,11b,12,13,13a,13b-octadecahydro-1H-cyclopenta[a]chrysen-9-yl)benzoate (12.7 mg, 0.021 mmol) in THF (1 mL) and MeOH (0.25 mL) was added a solution of 1N lithium hydroxide (0.073 mL, 0.073 mmol). The reaction was stirred at 75° C. After 1 h, the reaction was cooled to rt and purified by reverse phase prep-HPLC using HPLC method 4 and dried in vacuo to give 4-((1R,3aS,5aR,5bR,7aR,11aS,11bR,13aR,13bR)-5a,5b,8,8,11a-pentamethyl-3a-(1-methyl-1H-1,2,4-triazol-5-yl)-1-(prop-1-en-2-yl)-2,3,3a,4,5,5a,5b,6,7,7a,8,11,11a,11b,12,13,13a,13b-octadecahydro-1H-cyclopenta[a]chrysen-9-yl)benzoic acid (9.1 mg, 0.015 mmol, 70.4% yield) as a white solid. LC/MS: m/e 596.3 (M+H)^+, 5.33 min (method 3). ^1H NMR (400 MHz, 1:1 CDCl3:METHANOL-d4) δ 7.89 (d, J=8.3 Hz, 2H), 7.78 (s, 1H), 7.17 (d, J=8.6 Hz, 2H), 5.30-5.22 (m, 1H), 4.77 (d, J=1.7 Hz, 1H), 3.93 (s, 3H), 3.23-3.05 (m, 2H), 2.33 (d, J=13.7 Hz, 1H), 2.11 (dd, J=17.2, 6.2 Hz, 1H), 2.04-1.96 (m, 1H), 1.93-1.80 (m, 2H), 1.72 (s, 3H), 1.68 (d, J=16.4 Hz, 1H), 1.63-1.58 (m, 1H), 1.55-1.30 (m, 10H), 1.28-1.19 (m, 2H), 1.18-1.08 (m, 2H), 1.04 (s, 3H), 0.97 (s, 3H), 0.90 (s, 6H), 0.82 (s, 3H). HIV cell culture assay—MT-2 cells and 293T cells were obtained from the NIH AIDS Research and Reference Reagent Program. MT-2 cells were propagated in RPMI 1640 media supplemented with 10% heat inactivated fetal bovine serum, […]. The 293T cells were propagated in DMEM media supplemented with 10% heat inactivated fetal bovine serum (FBS), 100 units/mL penicillin G and 100 μg/mL streptomycin. The proviral DNA clone of NL4-3 was obtained from the NIH AIDS Research and Reference Reagent Program. A recombinant NL4-3 virus, in which a section of the nef gene from NL4-3 was replaced with the Renilla luciferase gene, was used as a reference virus. In addition, residue Gag P373 was converted to P373S. Briefly, the recombinant virus was prepared by transfection of the altered proviral clone of NL4-3. Transfections were performed in 293T cells using LipofectAMINE PLUS from Invitrogen (Carlsbad, Calif.), according to manufacturer's instruction. The virus was titered in MT-2 cells using luciferase enzyme activity as a marker. Luciferase was quantitated using the Dual Luciferase kit from Promega (Madison, Wis.), with modifications to the manufacturer's protocol. The diluted Passive Lysis solution was pre-mixed with the re-suspended Luciferase Assay Reagent and the re-suspended Stop & Glo Substrate (2:1:1 ratio). Fifty (50) μL of the mixture was added to each aspirated well on assay plates and luciferase activity was measured immediately on a Wallac TriLux (Perkin-Elmer). Antiviral activities of inhibitors toward the recombinant virus were quantified by measuring luciferase activity in cells infected for 4-5 days with NLRluc recombinants in the presence serial dilutions of the inhibitor. Biological Data Key for EC50
row,SMILES,EC50
1,"C=C(C)[C@@H]1CC[C@]2(c3nnco3)CC[C@]3(C)[C@H](CC[C@@H]4[C@@]5(C)CC=C(c6ccc(C(=O)O)cc6)C(C)(C)[C@@H]5CC[C@]43C)[C@@H]12 [Example 3, 4-((1R,3aS,5aR,5bR,7aR,11aS,11bR,13aR,13bR)-5a,5b,8,8,11a-pentamethyl-3a-(1,3,4-oxadiazol-2-yl)-1-(prop-1-en-2-yl)-2,3,3a,4,5,5a,5b,6,7,7a,8,11,11a,11b,12,13,13a,13b-octadecahydro-1H-cyclopenta[a]chrysen-9-yl)benzoic acid]",< 100 nM
2,"C=C(C)[C@@H]1CC[C@]2(c3nnc(CN(C)C)o3)CC[C@]3(C)[C@H](CC[C@@H]4[C@@]5(C)CC=C(c6ccc(C(=O)O)cc6)C(C)(C)[C@@H]5CC[C@]43C)[C@@H]12 [Example 4, 4-((1R,3aS,5aR,5bR,7aR,11aS,11bR,13 aR,13bR)-3a-(5-((dimethylamino)methyl)-1,3,4-oxadiazol-2-yl)-5a,5b,8,8,11a-pentamethyl-1-(prop-1-en-2-yl)-2,3,3a,4,5,5a,5b,6,7,7a,8,11,11a,11b,12,13,13a,13b-octadecahydro-1H-cyclopenta[a]chrysen-9-yl)benzoic acid]",< 100 nM
3,"C=C(C)[C@@H]1CC[C@]2(c3nc[nH]n3)CC[C@]3(C)[C@H](CC[C@@H]4[C@@]5(C)CC=C(c6ccc(C(=O)O)cc6)C(C)(C)[C@@H]5CC[C@]43C)[C@@H]12 [Example 5, 4-((1R,3aS,5aR,5bR,7aR,11aS,11bR,13aR,13bR)-5a,5b,8,8,11a-pentamethyl-1-(prop-1-en-2-yl)-3a-(1H-1,2,4-triazol-3-yl)-2,3,3a,4,5,5a,5b,6,7,7a,8,11,11a,11b,12,13,13a,13b-octadecahydro-1H-cyclopenta[a]chrysen-9-yl)benzoic acid]",< 100 nM
4,"C=C(C)[C@@H]1CC[C@]2(C#Cc3ccccc3C(=O)O)CC[C@]3(C)[C@H](CC[C@@H]4[C@@]5(C)CC=C(c6ccc(C(=O)O)cc6)C(C)(C)[C@@H]5CC[C@]43C)[C@@H]12 [Example 1, 2-(((1R,3aS,5aR,5bR,7aR,11aS,11bR,13aR,13bR)-9-(4-carboxyphenyl)-5a,5b,8,8,11a-pentamethyl-1-(prop-1-en-2-yl)-2,3,3a,4,5,5a,5b,6,7,7a,8,11,11a,11b,12,13,13a,13b-octadecahydro-1H-cyclopenta[a]chrysen-3a-yl)ethynyl)benzoic acid]",80 nM
5,"C=C(C)[C@@H]1CC[C@]2(c3ncn(CCN4CCS(=O)(=O)CC4)n3)CC[C@]3(C)[C@H](CC[C@@H]4[C@@]5(C)CC=C(c6ccc(C(=O)O)cc6)C(C)(C)[C@@H]5CC[C@]43C)[C@@H]12 [Example 6, 4-((1R,3aS,5aR,5bR,7aR,11aS,11bR,13aR,13bR)-3a-(1-(2-(1,1-dioxidothiomorpholino)ethyl)-1H-1,2,4-triazol-3-yl)-5a,5b,8,8,11a-pentamethyl-1-(prop-1-en-2-yl)-2,3,3a,4,5,5a,5b,6,7,7a,8,11,11a,11b,12,13,13a,13b-octadecahydro-1H-cyclopenta[a]chrysen-9-yl)benzoic acid]",< 100 nM
6,"C=C(C)[C@@H]1CC[C@]2(C#Cc3ccsc3-c3nnn[nH]3)CC[C@]3(C)[C@H](CC[C@@H]4[C@@]5(C)CC=C(c6ccc(C(=O)O)cc6)C(C)(C)[C@@H]5CC[C@]43C)[C@@H]12 [Example 2, 4-((1R,3aS,5aR,5bR,7aR,11aS,11bR,13 aR,13bR)-3a-((2-(1H-tetrazol-5-yl)thiophen-3-yl)ethynyl)-5a,5b,8,8,11a-pentamethyl-1-(prop-1-en-2-yl)-2,3,3a,4,5,5a,5b,6,7,7a,8,11,11a,11b,12,13,13a,13b-octadecahydro-1H-cyclopenta[a]chrysen-9-yl)benzoic acid]",> 100 nM
7,"C=C(C)[C@@H]1CC[C@]2(c3ncnn3C)CC[C@]3(C)[C@H](CC[C@@H]4[C@@]5(C)CC=C(c6ccc(C(=O)O)cc6)C(C)(C)[C@@H]5CC[C@]43C)[C@@H]12 [Example 7, 4-((1R,3aS,5aR,5bR,7aR,11aS,11bR,13aR,13bR)-5a,5b,8,8,11a-pentamethyl-3a-(1-methyl-1H-1,2,4-triazol-5-yl)-1-(prop-1-en-2-yl)-2,3,3a,4,5,5a,5b,6,7,7a,8,11,11a,11b,12,13,13a,13b-octadecahydro-1H-cyclopenta[a]chrysen-9-yl)benzoic acid]",< 100 nM
